# Assay results reported in patent US20220380829A1, “Method of Diagonosizing Pathogens and their Antimicrobial Susceptibility” (HANGZHOU DIAN MEDICAL LABORATORY CO., LTD., priority 2019, published 2022).
# Experiments:
# Enterococcus faecalis = assay: VITEK2 Compact AST (AST-P639 cards), gold standard culture-based AST; assay type: cell-based
# Streptococcus pneumoniae = assay: VITEK2 Compact AST (AST-GP68 cards) with penicillin disc diffusion, gold standard culture-based AST; assay type: cell-based
# Protocol: (§1) Step 1. Drug susceptibility verification: The Streptococcus pneumoniae isolates were tested for drug susceptibility using bioMérieux Vitek2 Compact System and AST-GP68 cards, and specifically, the susceptibility of penicillin was double checked by disc diffusion method (OXOID, CT0043B), and the combined results were used as the gold standard (culture-based AST).
# as §1, with “Sample collection and drug” for “Drug”, “48 clinical” for “The”, “pneumoniae isolates were collected from 18 hospitals across china in a period between May 2017 and October 2019. All” for “pneumoniae”, “card,” for “cards,”
# [1] = Resistance profile classification A
# [2] = Resistance profile classification B
# [3] = Resistance profile classification C
# [4] = Resistance profile classification D
# [5] = Resistance profile classification F (first line so labelled, r12)
# [6] = Resistance profile classification F (second line so labelled, r13)
# [7] = Resistance profile classification G
# [8] = Resistance profile classification H
# [9] = Resistance profile classification I
# [10] = Resistance profile classification J
# [11] = Resistance profile classification K
# [12] = Resistance profile classification L
# [13] = Resistance profile classification M
# [14] = Resistance profile classification S
# [15] = Resistance profile classification E
# [16] = Resistance profile classification F
# Further: key: ‘R’ indicates drug-resistant; ‘S’ indicates drug-susceptible.
Molecule,Susceptibility of Emterococcus faecalis to 11 antibacterial drugs (Enterococcus faecalis; [1]),Susceptibility of Emterococcus faecalis to 11 antibacterial drugs (Enterococcus faecalis; [2]),Susceptibility of Emterococcus faecalis to 11 antibacterial drugs (Enterococcus faecalis; [3]),Susceptibility of Emterococcus faecalis to 11 antibacterial drugs (Enterococcus faecalis; [4]),Susceptibility of Emterococcus faecalis to 11 antibacterial drugs (Enterococcus faecalis; [5]),Susceptibility of Emterococcus faecalis to 11 antibacterial drugs (Enterococcus faecalis; [6]),Susceptibility of Emterococcus faecalis to 11 antibacterial drugs (Enterococcus faecalis; [7]),Susceptibility of Emterococcus faecalis to 11 antibacterial drugs (Enterococcus faecalis; [8]),Susceptibility of Emterococcus faecalis to 11 antibacterial drugs (Enterococcus faecalis; [9]),Susceptibility of Emterococcus faecalis to 11 antibacterial drugs (Enterococcus faecalis; [10]),Susceptibility of Emterococcus faecalis to 11 antibacterial drugs (Enterococcus faecalis; [11]),Susceptibility of Emterococcus faecalis to 11 antibacterial drugs (Enterococcus faecalis; [12]),Susceptibility of Emterococcus faecalis to 11 antibacterial drugs (Enterococcus faecalis; [13]),Susceptibility of Emterococcus faecalis to 11 antibacterial drugs (Enterococcus faecalis; [14]),Blind 1 by AST (Streptococcus pneumoniae),blind 2 by AST (Streptococcus pneumoniae),other results
CC1(C)S[C@@H]2[C@H](NC(=O)[C@H](N)c3ccccc3)C(=O)N2[C@H]1C(=O)O [ampicillin],R,R,R,R,R,R,S,S,S,S,S,S,S,S,,,Susceptibility of Streptococcus pneumoniae to 14 antibacterial drugs (Streptococcus pneumoniae; [1]): R; Susceptibility of Streptococcus pneumoniae to 14 antibacterial drugs (Streptococcus pneumoniae; [2]): R; Susceptibility of Streptococcus pneumoniae to 14 antibacterial drugs (Streptococcus pneumoniae; [3]): R; Susceptibility of Streptococcus pneumoniae to 14 antibacterial drugs (Streptococcus pneumoniae; [4]): R; Susceptibility of Streptococcus pneumoniae to 14 antibacterial drugs (Streptococcus pneumoniae; [15]): R; Susceptibility of Streptococcus pneumoniae to 14 antibacterial drugs (Streptococcus pneumoniae; [16]): R; Susceptibility of Streptococcus pneumoniae to 14 antibacterial drugs (Streptococcus pneumoniae; [7]): S; Susceptibility of Streptococcus pneumoniae to 14 antibacterial drugs (Streptococcus pneumoniae; [8]): S; Susceptibility of Streptococcus pneumoniae to 14 antibacterial drugs (Streptococcus pneumoniae; [9]): S; Susceptibility of Streptococcus pneumoniae to 14 antibacterial drugs (Streptococcus pneumoniae; [10]): S; Susceptibility of Streptococcus pneumoniae to 14 antibacterial drugs (Streptococcus pneumoniae; [14]): S
CO/N=C(\C(=O)N[C@@H]1C(=O)N2C(C(=O)[O-])=C(C[N+]3(C)CCCC3)CS[C@H]12)c1csc(N)n1 [cefepime],,,,,,,,,,,,,,,S,R,
CO/N=C(\C(=O)N[C@@H]1C(=O)N2C(C(=O)O)=C(COC(C)=O)CS[C@H]12)c1csc(N)n1 [cefotaxime],,,,,,,,,,,,,,,S,R,
CO/N=C(\C(=O)N[C@@H]1C(=O)N2C(C(=O)O)=C(CSc3nc(=O)c(=O)[nH]n3C)CS[C@H]12)c1csc(N)n1 [ceftriaxone],,,,,,,,,,,,,,,S,R,
CCCCCCCCCC(=O)N[C@@H](Cc1c[nH]c2ccccc12)C(=O)N[C@H](CC(N)=O)C(=O)N[C@@H](CC(=O)O)C(=O)N[C@@H]1C(=O)NCC(=O)N[C@@H](CCCN)C(=O)N[C@@H](CC(=O)O)C(=O)N[C@H](C)C(=O)N[C@@H](CC(=O)O)C(=O)NCC(=O)N[C@H](CO)C(=O)N[C@@H]([C@H](C)CC(=O)O)C(=O)N[C@@H](CC(=O)c2ccccc2N)C(=O)O[C@@H]1C [daptomycin],S,S,S,S,S,S,S,S,S,S,S,S,S,S,,,
C[C@@H](O)[C@H]1C(=O)N2C(C(=O)O)=C(S[C@@H]3CN[C@H](C(=O)Nc4cccc(C(=O)O)c4)C3)[C@H](C)[C@H]12 [ertapenem],,,,,,,,,,,,,,,S,S,
CC[C@H]1OC(=O)[C@H](C)[C@@H](O[C@H]2C[C@@](C)(OC)[C@@H](O)[C@H](C)O2)[C@H](C)[C@@H](O[C@@H]2O[C@H](C)C[C@H](N(C)C)[C@H]2O)[C@](C)(O)C[C@@H](C)C(=O)[C@H](C)[C@@H](O)[C@]1(C)O [erythromycin],R,R,R,S,R,R,R,R,R,R,S,S,S,S,R,R,
C[C@H]1COc2c(N3CCN(C)CC3)c(F)cc3c(=O)c(C(=O)O)cn1c23 [levofloxacin],R,R,R,R,S,S,R,S,R,S,R,R,S,8,S,S,
CC(=O)NC[C@H]1CN(c2ccc(N3CCOCC3)c(F)c2)C(=O)O1 [linezolid],S,S,S,S,,,S,S,S,S,S,S,S,S,S,S,
C[C@@H](O)[C@H]1C(=O)N2C(C(=O)O)=C(S[C@@H]3CN[C@H](C(=O)N(C)C)C3)[C@H](C)[C@H]12 [meropenem],,,,,,,,,,,,,,,S,S,
COc1c(N2C[C@@H]3CCCN[C@@H]3C2)c(F)cc2c(=O)c(C(=O)O)cn(C3CC3)c12 [moxifloxacin],,,,,,,,,,,,,,,S,S,
CN(C)[C@@H]1C(O)=C(C(N)=O)C(=O)[C@@]2(O)C(O)=C3C(=O)c4c(O)cccc4[C@@](C)(O)[C@H]3C[C@@H]12 [tetracycline],R,S,S,S,S,R,R,R,S,R,R,S,R,S,R,R,Susceptibility of Streptococcus pneumoniae to 14 antibacterial drugs (Streptococcus pneumoniae; [1]): R; Susceptibility of Streptococcus pneumoniae to 14 antibacterial drugs (Streptococcus pneumoniae; [2]): R; Susceptibility of Streptococcus pneumoniae to 14 antibacterial drugs (Streptococcus pneumoniae; [3]): S; Susceptibility of Streptococcus pneumoniae to 14 antibacterial drugs (Streptococcus pneumoniae; [4]): S; Susceptibility of Streptococcus pneumoniae to 14 antibacterial drugs (Streptococcus pneumoniae; [15]): S; Susceptibility of Streptococcus pneumoniae to 14 antibacterial drugs (Streptococcus pneumoniae; [16]): S; Susceptibility of Streptococcus pneumoniae to 14 antibacterial drugs (Streptococcus pneumoniae; [7]): S; Susceptibility of Streptococcus pneumoniae to 14 antibacterial drugs (Streptococcus pneumoniae; [8]): S; Susceptibility of Streptococcus pneumoniae to 14 antibacterial drugs (Streptococcus pneumoniae; [9]): S; Susceptibility of Streptococcus pneumoniae to 14 antibacterial drugs (Streptococcus pneumoniae; [10]): R; Susceptibility of Streptococcus pneumoniae to 14 antibacterial drugs (Streptococcus pneumoniae; [14]): S
CN(C)c1cc(NC(=O)CNC(C)(C)C)c(O)c2c1C[C@H]1C[C@H]3[C@H](N(C)C)C(O)=C(C(N)=O)C(=O)[C@@]3(O)C(O)=C1C2=O [tigecycline],S,S,S,S,S,S,S,S,S,S,S,S,,S,,,
high-level gentamicin [HLAR],R,R,S,S,S,S,R,R,R,S,S,S,S,S,,,
